Results: article PMC8235661, “Photoelectric Dye, NK-5962, as a Potential Drug for Preventing Retinal Neurons from Apoptosis: Pharmacokinetic Studies Based on Review of the Evidence” (Life, 2021)
Several values for one entry are separate records, joined by “and”; a condition that tells them apart may be missing. Identical values can stand only once. Like-named read-outs stand apart in the source and are kept apart here.

Tests used:
[1] = tested on: chick retinal cells including neurons and glial cells; assay: Cell viability assay using mixed culture of chick retinal neurons and glial cells (LIVE/DEAD stain); format: cell-based; settings: for percentage of dead cells in the exposure to light (mean): 2.78% in the absence of NK-5962
Excerpt: Egg shells (Fukuda Breeders Co., Ltd., Okayama, Japan) were disinfected with 70% alcohol and 12-day-old chick embryos were removed from a small opening. The eyes at this embryonic stage were used because the outer segments of the retinal photoreceptor cells had not yet been developed. The eyes were enucleated and cut at the midperiphery of the globe and the anterior halves were removed together with the vitreous. The neurosensory retina at this embryonic stage could easily be peeled off from the eye cup. After peeling, retinal tissues were incubated in 0.25% trypsin, 1 mM ethylenediaminetetraacetic acid (EDTA) in Ca^2+, and Mg^2+-free Hanks’ balanced salt solution (HBSS) to disperse retinal cells. After centrifugation, the retinal cells were washed with Dulbecco’s modified Eagle’s medium (DMEM) and seeded at a concentration of 3.5 × 10^5 cell/mL in poly-L-lysine-coated wells of a 96-well multidish containing DMEM supplemented with 10% fetal bovine serum (FBS), 100 mg/L streptomycin, and 100 mg/L ampicillin.
In order to determine the types of cells, either neurons or glial cells derived from neurosensory retinal tissues, retinal cells following 2-day culture were stained for neuron-specific enolase and glial fibrillary acidic protein by immunocytochemistry. The majority of retinal cells at day 2 of the culture were neurons mixed with a small number of glial cells (Figure 2).
Retinal cells at a concentration of 3.5 × 10^5 cell/mL in 220 μL of DMEM with 10% FBS were cultured together with 20 μL of varying concentrations of NK-5962 for 2 days either under protection from light or under light from a fluorescent lamp at 230 lux for 9 h daily. The final concentrations of NK-5962 in the solution were 1.6 × 10^−5, 1.6 × 10^−6, and 1.6 × 10^−7 M. Cells were then incubated for 15 min with SYTO 10 Green fluorescent nucleic acid stain and DEAD Red nucleic acid stain (LIVE/DEAD Reduced Biohazard Viability/Cytotoxicity Kit: Molecular Probes; Thermo Fisher Scientific, Waltham, MA, USA) in HEPES-buffered saline. After being fixed with 4% glutaraldehyde in HEPES-buffered saline, live cells and dead cells were visualized with a 100 W mercury lamp as a light source under a fluorescence inverted microscope through a set of FITC and PI filters (Olympus IX71; Olympus Life Sciences, Tokyo, Japan). Images in the center of each well were captured with a CCD camera and stored in a computer. Three wells were assigned to each condition of incubation in one series of experiments and the entire procedure was repeated three times on different days to obtain nine results for each condition. Green live cells (stained with SYTO 10 Green) and orange dead cells (stained with both SYTO10 Green and DEAD RED) in the images for each well were counted and the percentage of dead cells to the total cells was analyzed statistically (Figure 2).

[2] = Unbound fraction by equilibrium dialysis, human plasma; format: in vitro ADME; settings: 1 μM, equilibrium dialysis 37 °C 4 h
Method: An equilibrium dialysis apparatus, Rapid Equilibrium Dialysis (RED) Device Single-Use Plate with Inserts, 8K MWCO (ThermoFisher Scientific, Waltham, MA, USA), was used to determine the unbound fraction for each compound in human plasma, rat plasma, and medium containing 10% fetal bovine serum (FBS). Plasma or medium was mixed with the test compound (1 μM) and 200 μL aliquots were loaded into the apparatus and dialyzed versus 350 μL of 100 mM phosphate buffer (pH 7.4) at 37 °C for 4 h by rotation at 1000 rpm. The unbound fraction was calculated as the ratio of receiver side (buffer) to donor side (plasma) concentrations.

[3] = Reactive oxygen species (ROS) assay under simulated sunlight; format: physicochemical
Method: The ROS assay was designed to detect both singlet oxygen and superoxide generated from photo-irradiated chemicals. Briefly, singlet oxygen was measured in aqueous solution by spectrophotometrically monitoring the bleaching of p-nitrosodimethylaniline at 440 nm using imidazole as a selective acceptor of singlet oxygen. Samples containing the tested chemical (20 or 200 μM), p-nitrosodimethylaniline (50 μM), and imidazole (50 μM) in 20 mM sodium phosphate buffer (pH 7.4) were mixed in a tube. Each sample in 200 μL was transferred into a well of a plastic 96-well plate (clear, untreated, and flat-bottomed) and checked for precipitation under a microscope with an objective lens (×100) before light exposure. The plate was subjected to a measurement of absorbance at 440 nm using a microplate spectrophotometer. The plate was fixed in the quartz reaction container with a quartz cover and then irradiated with the simulated sunlight (ultraviolet A/B and visible light, 250 W/m^2, Suntest CPS plus, Atlas Material Testing Technology, Mount Prospect, IL, USA) for 1 h. After agitation on a plate shaker, the UV absorbance at 440 nm was measured. For the determination of superoxide, samples containing the test chemical (20 or 200 μM) and nitroblue tetrazolium (50 μM) in 20 mM sodium phosphate buffer were irradiated with the simulated sunlight for 1 h and the reduction in nitroblue tetrazolium was measured by the increase in absorbance at 560 nm in the same manner as the singlet oxygen determination. Experiments were performed in triplicate wells in three independent runs. As the final concentration, 200 μM test chemical solutions should be subjected to the ROS assay. However, when precipitation could be observed at 200 μM under the optical microscope, additional experiments should be performed under appropriate dilution (20, 50, or 100 μM).

[4] = Acute systemic toxicity test; settings: in vivo
[5] = Repeated-dose systemic toxicity test; settings: in vivo
[6] = tested on: chick retinal cells including neurons and glial cells; parameters: method as in PMID 18414992; settings: cited from earlier work; for The Percentage of Dead Cells in Total Cells: 2 days, per well
[7] = tested on: apoptotic cells in the retinal outer nuclear layer of RCS rats; parameters: method as in PMID 28085534; settings: cited from earlier work
[8] = 0.16 μM NK-5962, exposure to light
[9] = 1.6 μM NK-5962, exposure to light
[10] = 16 μM NK-5962, exposure to light
[11] = 20 µM, simulated sunlight 1 h, mean ± standard deviation (n = 3)

CCCCN(CCCC)c1ccc(C=Cc2sc3ccccc3[n+]2CC(=O)O)cc1.[Br-] [NK-5962, 2-[2-[4-(dibutylamino)phenyl]ethenyl]-3-carboxymethylbenzothiazolium bromide]
rate of the percentage of dead cells compared with the absence of NK-5962 [1, 8]: 105% | percentage of dead cells in the exposure to light (mean) [1, 8]: 2.93% | rate of the percentage of dead cells compared with the absence of NK-5962 [1, 9]: 68% | percentage of dead cells in the exposure to light (mean) [1, 9]: 1.89% | rate of the percentage of dead cells compared with the absence of NK-5962 [1, 10]: 42% | percentage of dead cells in the exposure to light (mean) [1, 10]: 1.17% | IC50 ([1]; Gallus gallus, corrected with non-binding ratio 0.34 in 10% FBS, read-out: IC50 based on free form of NK-5962): 1700 nM | Protein-Binding (Non-Binding Ratio) Human Plasma [2]: 0.028 | Reactive Oxygen Species Generation Singlet oxygen [3, 11]: 93 ± 14 ΔA440 × 1000 | Reactive Oxygen Species Generation Superoxide [3, 11]: Not detected | phototoxicity conclusion from ROS assay ([3]; low level of reactive oxygen species generation): less phototoxic | acute systemic toxicity test [4]: not toxic | repeated-dose systemic toxicity test [5]: not toxic | percentage of dead cells, dependence on concentration ([6]; 2 days culture, dark or light condition, P = 0.0183 two-factor ANOVA): significantly smaller at higher concentrations | The Percentage of Dead Cells in Total Cells ([6]; NK-5962 1.6 × 10^−5 M, light exposure yes (230 lux 9 h daily)): 1.3% and 0% and 0.5% and 0.3% and 1.9% and 3.2% and 3.0% | The Percentage of Dead Cells in Total Cells ([6]; NK-5962 1.6 × 10^−6 M, light exposure no): 2.5% and 0.4% and 1.3% and 2.4% and 0.8% and 1.7% and 1.9% and 1.4% | The Percentage of Dead Cells in Total Cells ([6]; NK-5962 1.6 × 10^−7 M, light exposure no): 5.1% and 2.0% and 0.3% and 1.2% and 0% and 2.3% and 2.2% and 1.3% | number of TUNEL-positive cells in the outer nuclear layer of the four retinal sites (a + b + c + d) ([7]; 1.6 μM NK-5962 intravitreous, saline 139): 85 | number of TUNEL-positive cells in the outer nuclear layer of the four retinal sites (a + b + c + d) ([7]; 16 μM NK-5962 intravitreous, saline 129): 72 | number of TUNEL-positive cells in the outer nuclear layer compared to saline-injected eyes ([7]; intravitreous 16 μM, constant dark condition, P = 0.0001): significantly less | TUNEL-positive cells in the outer nuclear layer compared to the saline-injected eyes ([7]; intravitreous 3 μL twice, 16 to 16 × 10^−2 μM, 12 h light/dark cycle): significantly less
